Measured values as given in patent US11780849B2, “Imino sulfanone inhibitors of ENPP1” (Volastra Therapeutics, Inc., priority 2020, dated 2023).
Like-named read-outs stand apart in the source and are kept apart here.

Tests used:
[1] = biological target: ENPP1 on MDA-MB-231 cells (Homo sapiens (Human), UniProt P22413); test: Assay 3: inhibition of ENPP1 hydrolysis of AMP p-nitrophenyl ester on MDA-MB-231 cells
Method: Hydrolysis of the p-nitrophenyl ester of AMP (pNP-AMP), an isostere of ATP, is selectively catalyzed by ENPP1 in the supernatant of MDA-MB-231 cell cultures. Inhibition of the hydrolysis of pNP-AMP by MDA-MB-231 at pH 7.4 and 37° C., is a good model of physiologically relevant activity of membrane-bound ENPP1 at disease-relevant expression levels.
MDA-MB-231 cells were harvested using TypLE Express Enzyme digestion and suspended in 100 μL of Leibovitz's L-15 Medium, 20% FBS, seeding the cells in a 96-well assay plate with 4.5×10^4 cells/well. Cells were incubated at 37° C. with 1% CO2 for 24 h. In a separate dilution plate, 2× of top dose of compound was prepared in phenol-red free 1640 medium without FBS and then 1:3 serial diluted in the same medium. The cell culture medium of L15 medium was aspirated carefully and cells were washed with PBS once, and 50 μL per well of test compound or DMSO blank were added to the assay plate. Substrate mix (50 μL; 0.5 mM pNP-AMP in phenol-red free 1640 media without FBS) was added for a pNP-AMP final concentration of 0.25 mM. The system was incubated at 37° C. for 3 h.

ENPP-1 ECD [2] = biological target: T1, ENPP-1 ECD (Homo sapiens (Human), UniProt P22413); test: Assay 2: inhibition of ENPP1 hydrolysis of 2′,3′-cGAMP (AMP-Glo, […] enzyme)
T1 sequence (P22413 98-925): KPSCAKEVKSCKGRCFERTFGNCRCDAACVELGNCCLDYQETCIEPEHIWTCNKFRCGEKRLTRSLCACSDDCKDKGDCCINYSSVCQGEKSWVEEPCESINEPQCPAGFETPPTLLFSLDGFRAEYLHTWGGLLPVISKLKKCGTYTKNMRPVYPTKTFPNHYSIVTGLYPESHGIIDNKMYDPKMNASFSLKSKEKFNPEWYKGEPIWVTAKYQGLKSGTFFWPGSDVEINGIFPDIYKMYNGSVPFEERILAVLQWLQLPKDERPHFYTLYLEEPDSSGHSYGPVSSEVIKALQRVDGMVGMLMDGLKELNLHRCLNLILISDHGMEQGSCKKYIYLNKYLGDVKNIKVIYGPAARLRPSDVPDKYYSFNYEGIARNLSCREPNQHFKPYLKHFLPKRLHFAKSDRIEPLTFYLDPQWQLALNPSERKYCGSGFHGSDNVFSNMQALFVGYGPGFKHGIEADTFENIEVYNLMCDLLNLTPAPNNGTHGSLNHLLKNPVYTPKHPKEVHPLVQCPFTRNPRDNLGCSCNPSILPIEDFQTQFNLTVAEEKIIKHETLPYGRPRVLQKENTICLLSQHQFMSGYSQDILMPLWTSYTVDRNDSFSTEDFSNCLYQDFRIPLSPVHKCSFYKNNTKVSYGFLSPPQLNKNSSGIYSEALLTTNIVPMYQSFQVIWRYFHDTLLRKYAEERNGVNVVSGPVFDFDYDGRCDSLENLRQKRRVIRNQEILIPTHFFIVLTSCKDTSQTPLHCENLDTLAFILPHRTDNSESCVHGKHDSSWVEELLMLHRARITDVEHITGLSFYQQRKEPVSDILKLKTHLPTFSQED
Method: Assay 2: Compared to the conditions in Assay 1, this assay has a larger dynamic range and ensures the system is under steady-state conditions by reducing the enzyme concentration in the assay.
Test compounds were plated in a 3× dilution scheme in a 384 well plate. […] AMP Detection solution (10 μL) was added to each well, the plate centrifuged and incubated for 60 min.

ENPP-1 ECD [3] = biological target: T1, ENPP-1 ECD; test: Assay 1: inhibition of ENPP1 hydrolysis of 2′,3′-cGAMP (AMP-Glo, […] enzyme)
Method: Assay 1: Test compounds were plated in a 3× dilution scheme in a 384 well plate. […] AMP Detection solution (100 μL) was added to each well, the plate centrifuged and incubated for 60 min.

[4] = read-out: Assay 3 (KI, app), apparent KI from IC50 via Cheng/Prusoff, pNP-AMP […], MDA-MB-231 cells, pH 7.4, 37° C., 3 h, unit inferred
[5] = read-out: Assay 2 (KI), ENPP1 hydrolysis of 2′,3′-cGAMP, AMP-Glo, […] ENPP-1, 24 μM cGAMP
[6] = read-out: Assay 2 (KI), inhibition of ENPP1 hydrolysis of 2′,3′-cGAMP, no unit in Table 18 (Table 17 legend for this assay uses nM)
[7] = read-out: Assay 1 (IC50), ENPP1 hydrolysis of 2′,3′-cGAMP, AMP-Glo
[8] = read-out: Assay 1 (IC50), inhibition of ENPP1 hydrolysis of 2′,3′-cGAMP, no unit in Table 18 (Table 17 legend for this assay uses nM)
[9] = Assay 2 (KI), ENPP1 hydrolysis of 2′,3′-cGAMP, AMP-Glo, […] ENPP-1, 24 μM cGAMP
[10] = Assay 2 (KI), inhibition of ENPP1 hydrolysis of 2′,3′-cGAMP, no unit in Table 18 (Table 17 legend for this assay uses nM)
[11] = Assay 1 (IC50), ENPP1 hydrolysis of 2′,3′-cGAMP, AMP-Glo
[12] = Assay 1 (IC50), inhibition of ENPP1 hydrolysis of 2′,3′-cGAMP, no unit in Table 18 (Table 17 legend for this assay uses nM)
[13] = IC50 in Assay 1, […] ENPP-1 ECD, 24 μM 2,3-cGAMP, pH 8.0
[14] = KI in Assay 2, […] ENPP-1 ECD, 24 μM 2,3-cGAMP, pH 8.0, converted from IC50 via Cheng/Prusoff

Chain of ENPP1 on MDA-MB-231 cells (P22413 whole entry, the tested form may be a part): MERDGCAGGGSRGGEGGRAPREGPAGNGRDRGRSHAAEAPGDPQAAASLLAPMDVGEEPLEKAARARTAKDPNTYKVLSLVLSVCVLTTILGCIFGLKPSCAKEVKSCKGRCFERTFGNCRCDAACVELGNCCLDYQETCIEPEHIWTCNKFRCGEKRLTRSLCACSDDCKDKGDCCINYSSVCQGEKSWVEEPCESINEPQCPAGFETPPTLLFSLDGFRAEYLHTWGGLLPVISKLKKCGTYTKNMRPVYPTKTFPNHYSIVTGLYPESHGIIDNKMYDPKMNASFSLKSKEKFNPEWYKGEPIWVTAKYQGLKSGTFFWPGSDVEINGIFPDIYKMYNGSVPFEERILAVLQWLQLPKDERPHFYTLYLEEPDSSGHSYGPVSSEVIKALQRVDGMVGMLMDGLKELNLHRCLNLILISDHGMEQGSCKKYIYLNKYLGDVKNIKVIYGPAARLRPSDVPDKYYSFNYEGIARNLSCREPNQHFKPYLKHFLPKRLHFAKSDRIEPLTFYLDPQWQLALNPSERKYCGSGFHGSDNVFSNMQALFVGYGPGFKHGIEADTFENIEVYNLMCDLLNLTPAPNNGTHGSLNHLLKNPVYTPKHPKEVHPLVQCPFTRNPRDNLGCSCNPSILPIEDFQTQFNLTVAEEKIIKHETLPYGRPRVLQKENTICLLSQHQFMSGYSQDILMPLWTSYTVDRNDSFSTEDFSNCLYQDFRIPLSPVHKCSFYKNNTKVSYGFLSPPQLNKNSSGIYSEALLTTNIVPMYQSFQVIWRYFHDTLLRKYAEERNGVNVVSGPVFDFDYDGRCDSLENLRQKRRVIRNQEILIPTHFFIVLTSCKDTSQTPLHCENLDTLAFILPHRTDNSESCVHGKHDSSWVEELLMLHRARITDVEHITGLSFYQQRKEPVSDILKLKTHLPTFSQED

Ki [1, 4] | Ki (ENPP-1 ECD [2]; [5]) | Ki (ENPP-1 ECD [2]; [6]) | IC50 (ENPP-1 ECD [3]; [7]) | IC50 (ENPP-1 ECD [3]; [8]) | Ki [1] | Ki (ENPP-1 ECD [2]; [9]) | Ki (ENPP-1 ECD [2]; [10]) | IC50 (ENPP-1 ECD [3]; [11]) | IC50 (ENPP-1 ECD [3]; [12]) | IC50 (ENPP-1 ECD [3]; [13]) | Ki (ENPP-1 ECD [2]; [14]) | Structure (SMILES)
11 nM | < 3 nM | 0.099 nM | < 10 nM | 1.3 nM |  |  |  |  |  |  |  | COc1ccc2c(Oc3ccc([S@@](=N)(=O)C4CC4)cc3)ccnc2c1 [Compound 60a]
 |  |  |  |  | 430 nM | 3 to 300 nM | 18 nM | 10 to 1000 nM | 120 nM |  |  | COc1cccc2c(N3CCC(CCS(C)(=N)=O)CC3)ncnc12 (stereo not drawn) [Compound 72, imino({2-[1-(8-methoxyquinazolin-4-yl)piperidin-4-yl]ethyl})methyl-λ^6-sulfanone]
 |  |  | < 10 nM |  | 31 nM | < 3 nM | 0.49 nM |  | 4.4 nM |  |  | COc1ccc2c(OCc3ccc(S(C)(=N)=O)cc3)ccnc2c1 (stereo not drawn) [Compound 75, imino(4-(((7-methoxyquinolin-4-yl)oxy)methyl)phenyl)(methyl)-λ^6-sulfanone]
22 nM | < 3 nM | 0.38 nM | < 10 nM | 3 nM |  |  |  |  |  |  |  | COc1ccc2c(OCc3ccc([S@@](C)(=N)=O)cc3)ccnc2c1 [Compound 75a]
 |  |  | < 10 nM |  | 29 nM | < 3 nM | 1.1 nM |  | 6.2 nM | 1.4 nM |  | COc1ccc2c(Oc3ccc(S(C)(=N)=O)cc3)ccnc2c1 (stereo not drawn) [Compound 80, imino(4-((7-methoxyquinolin-4-yl)oxy)phenyl)(methyl)-λ^6-sulfanone]
13 nM | < 3 nM | 0.26 nM | < 10 nM | 2.2 nM |  |  |  |  |  |  |  | COc1ccc2c(Oc3ccc([S@@](C)(=N)=O)cc3)ccnc2c1 [Compound 80a]
 |  |  | < 10 nM |  | 83 nM | < 3 nM | 1.3 nM |  | 6.6 nM |  |  | COc1cc2ncnc(N3CCC(CNS(C)(=N)=O)CC3)c2cc1OC (stereo not drawn) [Compound 94, N-((1-(6,7-dimethoxyquinazolin-4-yl)piperidin-4-yl)methyl)methanesulfonimidamide]
 |  |  |  |  | 300 nM | 3 to 300 nM | 5.4 nM | 10 to 1000 nM | 40 nM |  |  | COc1ccc2c(Oc3ccc(S(C)(=N)=O)nc3)ccnc2c1 (stereo not drawn) [Compound 101, imino({5-[(7-methoxyquinolin-4-yl)oxy]pyridin-2-yl})methyl-λ^6-sulfanone]
 |  |  | < 10 nM |  | 49 nM | < 3 nM | 1.3 nM |  | 9 nM |  |  | CCS(=N)(=O)c1ccc(Oc2ccnc3cc(OC)ccc23)cc1 (stereo not drawn) [Compound 103, ethyl(imino)(4-((7-methoxyquinolin-4-yl)oxy)phenyl)-λ^6-sulfanone]
30 nM | < 3 nM | 0.31 nM | < 10 nM | 2.2 nM |  |  |  |  |  |  |  | CC[S@](=N)(=O)c1ccc(Oc2ccnc3cc(OC)ccc23)cc1 [Compound 103b]
 |  |  |  |  | 19 nM | < 3 nM | 0.27 nM |  | 2.8 nM |  |  | COc1cc2nccc(Oc3ccc(S(C)(=N)=O)cc3)c2cc1F (stereo not drawn) [Compound 114, {4-[(6-fluoro-7-methoxyquinolin-4-yl)oxy]phenyl}(imino)methyl-λ^6-sulfanone]
6.3 nM | < 3 nM | 0.088 nM | < 10 nM | 0.94 nM |  |  |  |  |  |  |  | COc1cc2nccc(Oc3ccc([S@](C)(=N)=O)cc3)c2cc1F [Compound 114a]
 |  |  | < 10 nM |  | 6.2 nM | < 3 nM | 0.12 nM |  | 1.1 nM |  |  | COc1cc2nccc(Oc3ccc(S(=N)(=O)C4CC4)cc3)c2cc1F (stereo not drawn) [Compound 120, [cyclopropyl({4-[(6-fluoro-7-methoxyquinolin-4-yl)oxy]phenyl})imino-λ^6-sulfanyl]one]
6.5 nM | < 3 nM | 0.05 nM | < 10 nM | 0.46 nM |  |  |  |  |  |  |  | COc1cc2nccc(Oc3ccc([S@@](=N)(=O)C4CC4)cc3)c2cc1F [Compound 120a]
 |  |  |  |  | 380 nM | 3 to 300 nM | 5 nM | 10 to 1000 nM | 30 nM |  |  | COc1cc2nncc(Oc3ccc(S(C)(=N)=O)cc3)c2cc1OC (stereo not drawn) [Compound 127, {4-[(6,7-dimethoxycinnolin-4-yl)oxy]phenyl}(imino)methyl-λ^6-sulfanone]
 |  |  |  |  | 13 nM | < 3 nM | 0.12 nM |  | 1.4 nM |  |  | COc1ccc2c(OCc3cccc(S(C)(=N)=O)c3)ccnc2c1 (stereo not drawn) [Compound 133, imino(3-{[(7-methoxyquinolin-4-yl)oxy]methyl}phenyl)methyl-λ^6-sulfanone]
4.1 nM | < 3 nM | 0.055 nM | < 10 nM | 0.5 nM |  |  |  |  |  |  |  | COc1ccc2c(OCc3cccc([S@@](C)(=N)=O)c3)ccnc2c1 [Compound 133a]
 |  |  |  |  | 110 nM | < 3 nM | 1.4 nM |  | 7.8 nM |  |  | COc1ccc2c(OCc3ccc(S(C)(=N)=O)cc3F)ccnc2c1 (stereo not drawn) [Compound 135, (3-fluoro-4-{[(7-methoxyquinolin-4-yl)oxy]methyl}phenyl)(imino)methyl-λ^6-sulfanone]
 |  |  | < 10 nM |  | 29 nM | < 3 nM | 0.32 nM |  | 2 nM |  |  | COc1cc2nccc(OCc3ccc(S(C)(=N)=O)cc3)c2cc1F (stereo not drawn) [Compound 136]
 |  |  |  |  | 140 nM | 3 to 300 nM | 4.6 nM | 10 to 1000 nM | 37 nM |  |  | COc1cc2nccc(OCc3ccc(S(C)(=N)=O)cc3)c2cc1OC (stereo not drawn) [Compound 138, (4-{[(6,7-dimethoxyquinolin-4-yl)oxy]methyl}phenyl)(imino)methyl-λ^6-sulfanone]
 |  |  |  |  | 16 nM | < 3 nM | 0.25 nM |  | 2.1 nM |  |  | COc1cc2nccc(N3CCC(CCS(C)(=N)=O)CC3)c2cc1Cl (stereo not drawn) [Compound 141, {2-[1-(6-chloro-7-methoxyquinolin-4-yl)piperidin-4-yl]ethyl}(imino)methyl-λ^6-sulfanone]
 |  |  |  |  | 62 nM | < 3 nM | 1.3 nM |  | 8.6 nM |  |  | COc1cc2nccc(N3CCC(CCS(C)(=N)=O)CC3)c2cc1F (stereo not drawn) [Compound 150, {2-[1-(6-fluoro-7-methoxyquinolin-4-yl)piperidin-4-yl]ethyl}(imino)methyl-λ^6-sulfanone]
 |  |  |  |  | 59 nM | < 3 nM | 0.57 nM |  | 6.2 nM |  |  | COc1cc2nncc(N3CCC(CCS(C)(=N)=O)CC3)c2cc1OC (stereo not drawn) [Compound 151, {2-[1-(6,7-dimethoxycinnolin-4-yl)piperidin-4-yl]ethyl}(imino)methyl-λ^6-sulfanone]
 |  |  | < 10 nM |  | 26 nM | < 3 nM | 0.41 nM |  | 2.4 nM |  |  | COc1cc2ncc(C#N)c(N3CCC(CCS(C)(=N)=O)CC3)c2cc1Cl (stereo not drawn) [Compound 152, 6-chloro-4-(4-{2-[imino(methyl)oxo-λ6-sulfanyl]ethyl}piperidin-1-yl)-7-methoxyquinoline-3-carbonitrile]
 |  |  |  |  | 3.7 nM | < 3 nM | 0.051 nM |  | 1.3 nM | 1.3 nM |  | COc1cc2nccc(-c3ccc4c(c3)CN(S(C)(=N)=O)CC4)c2cc1OC (stereo not drawn) [Compound 161, [7-(6,7-dimethoxyquinolin-4-yl)-1,2,3,4-tetrahydroisoquinolin-2-yl](imino)methyl-λ^6-sulfanone]
 |  |  |  |  | 380 nM |  |  |  |  | 190 nM | 32 nM | COc1cc2nccc(Oc3ccc(S(N)(=O)=O)cc3)c2cc1OC [reference compound]
 |  |  |  |  | 24 nM |  |  |  |  | 2.9 nM | 0.47 nM | COc1cc2ncc(C#N)c(N3CCC4(CC3)CCN(S(N)(=O)=O)C4)c2cc1F [reference compound]
